A short description of data set [1]: Cytotoxicity evaluation (CCK8), 293. To be noted: human.
Data set [2] addresses T1, human PGE2 receptor EP4 subtype (hEP4) (Homo sapiens, UniProt P35408).
T1 construct: expressed in transfected cells; host or cells: CHO-K1-Gα16
Briefly: Calcium flux of human prostaglandin E2 receptor EP4 subtype. It counts as cell-based. To be noted: CHO-K1-Gα16 cells overexpressing hEP4, calcium flux activated by prostaglandin E2; read-out: hEP4 Ca^2+ IC50. How it is done: (§1) CHO-K1-Gα16 cells at the logarithmic growth phase were transfected with EP4 overexpressing vector by Lipofectamine 2000 and then seeded in a 96-well plate (Falcon, CA) and cultured at 20000 cells per 100 μL culture medium overnight. On the second day, every single well were added with 100 μL calcium 5 detection reagents (Molecular Devices) and incubated in incubator at 37° C., 5% CO2 for 45 minutes. The compounds were diluted in HBSS detection buffer, then added to 96-well plates. After incubated for 20 min at room temperature away from light, certain concentration of prostaglandin E2 was used to activate calcium flux of cells for detection (Flexstation 3, MD, CA).
(§2) Calculate the IC50 of the compounds of the invention in inhibiting the calcium flux of human PGE2 receptor EP4 subtype (hEP4) and mouse PGE2 receptor EP4 subtype (mEP4) (i.e. the concentration of drugs at which the intracellular Ca^2+ flux is inhibited by half after overexpressing hEP4 and mEP4 receptors in CHO-K1-Gα16 cells). The IC50 of the drugs were calculated using GraphPad Prism 5.

The target of data set [3] is T2, human prostaglandin E2 receptor EP2 subtype (Homo sapiens, UniProt P43116).
T2 construct: expressed in transfected cells; host or cells: CHO-K1-Gα16
As to the kind of experiment: Calcium flux of human prostaglandin E2 receptor EP2 subtype. The data set is classed as cell-based. The following applies: CHO-K1-Gα16 cells overexpressing human EP2, activated by prostaglandin E2; read-out: hEP2 Ca^2+ IC50. The procedure:
(§3) CHO-K1-Gα16 cells at the logarithmic growth phase were transfected with human prostaglandin E2 Receptor subtypes EP1, EP2 or EP3 overexpressing vector by Lipofectamine 2000, then seeded in a 96-well plate (Falcon, CA) at a density of 20000 cells per 100 μL culture medium for overnight culture. On the second day, every single well were added with 100 μL calcium 5 detection reagents (Molecular Devices) and incubated in incubator at 37° C., 5% CO2 for 45 minutes. The compounds were diluted with HBSS detection buffer, then were added to 96-well plates. After 20 min incubation at room temperature in the dark, prostaglandin E2 at certain concentration was used to activate calcium flux of cells for detection (Flexstation 3, MD, CA).
(§4) Calculate the IC50 of the compounds of the invention in inhibiting the calcium flux of human EP1, EP2, and EP3 receptor (i.e. the concentration of drugs at which the intracellular Ca^2+ flux being inhibited by half after overexpressing human EP1, EP2, and EP3 receptors in CHO-K1-Gα16 cells). The IC50 of the drugs were calculated using GraphPad Prism 5.

In data set [4] the target is T3, human prostaglandin E2 receptor EP3 subtype (Homo sapiens, UniProt P43115).
T3 construct: expressed in transfected cells; host or cells: CHO-K1-Gα16
T3 sequence (P43115 1-390): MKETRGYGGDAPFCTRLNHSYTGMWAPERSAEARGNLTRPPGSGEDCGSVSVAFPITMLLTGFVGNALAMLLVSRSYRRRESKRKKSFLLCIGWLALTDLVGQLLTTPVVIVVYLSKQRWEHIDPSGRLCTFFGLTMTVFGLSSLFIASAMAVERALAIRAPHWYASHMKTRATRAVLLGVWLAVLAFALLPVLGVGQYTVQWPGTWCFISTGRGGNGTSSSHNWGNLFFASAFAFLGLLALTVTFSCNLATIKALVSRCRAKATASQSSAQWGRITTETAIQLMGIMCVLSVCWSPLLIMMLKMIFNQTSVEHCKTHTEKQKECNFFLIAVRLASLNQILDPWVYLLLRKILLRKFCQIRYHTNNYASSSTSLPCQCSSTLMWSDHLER
As to the kind of experiment: Calcium flux of human prostaglandin E2 receptor EP3 subtype. It counts as cell-based. The following applies: CHO-K1-Gα16 cells overexpressing human EP3, activated by prostaglandin E2; read-out: hEP3 Ca^2+ IC50. The procedure:
as §3, §4
(Calcium flux is commonly read through the fluorescence of an indicator in the cells.)

The nature of data set [5]: Cytotoxicity evaluation (CCK8), PANC02. To be noted: mouse, PANC02 pancreatic cancer cells.
Protocol: (§5) Cells with a density of 2000-8000 cells per 100 μL medium were seeded in 96-well plates (Falcon, CA) and incubated for 24 hours, then treated with drugs having different concentration gradient (at least 4 replicates per concentration) and incubated at 37° C. in 5% CO2 incubator for 72 hours. Then cell viability was detected by CCK8 method. That is to say, add 10 μL CCK8 to each well and incubate for 0.33-2 h, and the OD values are read by microplate reader at 450 nm. The inhibition rate on cell survival of compounds with each concentration were calculated.
(§6) Inhibition rate on cell survival=(OD value of groups with each concentration/OD
(§7) value of control group)×100%±standard deviation.
(§8) The IC50 of drugs were calculated using GraphPad Prism 5.0.
The target in data set [6] is T4, mouse PGE2 receptor EP4 subtype (mEP4) (Mus musculus, UniProt P32240).
T4 construct: expressed in transfected cells; host or cells: CHO-K1-Gα16
As to the kind of experiment: Calcium flux of mouse prostaglandin E2 receptor EP4 subtype. The data set is classed as cell-based. To be noted: CHO-K1-Gα16 cells overexpressing mEP4, calcium flux activated by prostaglandin E2; read-out: mEP4 Ca^2+ IC50. How it is done:
as §1, §2

Data set [7] is described as follows: Cytotoxicity evaluation (CCK8), EMT-6. To be noted: mouse, EMT-6 breast cancer cells.
Protocol: as §5, §6, §7, §8
The nature of data set [8]: Cytotoxicity evaluation (CCK8), CT26. The following applies: mouse, CT26 intestinal cancer cells.
Protocol: as §5, §6, §7, §8
Data set [9] is described as follows: Cytotoxicity evaluation (CCK8), MOSJ. To be noted: mouse, MOSJ osteosarcoma cells.
Protocol: as §5, §6, §7, §8
The target in data set [10] is T5, human prostaglandin E2 receptor EP1 subtype (Homo sapiens, UniProt P34995).
T5 construct: expressed in transfected cells; host or cells: CHO-K1-Gα16
T5 sequence (P34995 1-402): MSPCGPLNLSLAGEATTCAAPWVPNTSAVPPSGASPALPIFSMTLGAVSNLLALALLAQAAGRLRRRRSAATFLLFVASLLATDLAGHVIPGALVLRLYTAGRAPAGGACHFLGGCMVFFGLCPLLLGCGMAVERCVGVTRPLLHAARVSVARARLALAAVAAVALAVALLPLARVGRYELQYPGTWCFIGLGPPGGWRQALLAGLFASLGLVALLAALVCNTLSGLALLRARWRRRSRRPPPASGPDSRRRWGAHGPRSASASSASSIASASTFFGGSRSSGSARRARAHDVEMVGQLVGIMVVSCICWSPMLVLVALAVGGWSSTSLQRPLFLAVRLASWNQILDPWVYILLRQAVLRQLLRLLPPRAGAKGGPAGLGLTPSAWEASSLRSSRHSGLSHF
Briefly: Calcium flux of human prostaglandin E2 receptor EP1 subtype. It counts as cell-based. To be noted: CHO-K1-Gα16 cells overexpressing human EP1, activated by prostaglandin E2; read-out: hEP1 Ca^2+ IC50. How it is done:
as §3, §4

A short description of data set [11]: Cytotoxicity evaluation (CCK8), LLC. To be noted: mouse, LLC lung cancer cells.
Protocol: as §5, §6, §7, §8

T4 sequence (P32240 whole entry): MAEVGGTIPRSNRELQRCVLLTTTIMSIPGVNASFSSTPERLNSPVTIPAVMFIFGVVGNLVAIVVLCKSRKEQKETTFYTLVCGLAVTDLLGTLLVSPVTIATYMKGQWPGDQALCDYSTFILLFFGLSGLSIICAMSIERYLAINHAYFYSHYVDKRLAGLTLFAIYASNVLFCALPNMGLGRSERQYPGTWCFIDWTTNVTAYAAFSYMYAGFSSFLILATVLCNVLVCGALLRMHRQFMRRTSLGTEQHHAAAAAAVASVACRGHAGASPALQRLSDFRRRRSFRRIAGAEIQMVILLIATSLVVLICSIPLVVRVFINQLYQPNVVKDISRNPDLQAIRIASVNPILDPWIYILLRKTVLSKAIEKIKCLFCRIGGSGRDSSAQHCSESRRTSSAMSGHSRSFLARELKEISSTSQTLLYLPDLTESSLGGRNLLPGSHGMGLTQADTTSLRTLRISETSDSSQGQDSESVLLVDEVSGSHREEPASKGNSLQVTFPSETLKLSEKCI
T2 sequence (P43116 whole entry): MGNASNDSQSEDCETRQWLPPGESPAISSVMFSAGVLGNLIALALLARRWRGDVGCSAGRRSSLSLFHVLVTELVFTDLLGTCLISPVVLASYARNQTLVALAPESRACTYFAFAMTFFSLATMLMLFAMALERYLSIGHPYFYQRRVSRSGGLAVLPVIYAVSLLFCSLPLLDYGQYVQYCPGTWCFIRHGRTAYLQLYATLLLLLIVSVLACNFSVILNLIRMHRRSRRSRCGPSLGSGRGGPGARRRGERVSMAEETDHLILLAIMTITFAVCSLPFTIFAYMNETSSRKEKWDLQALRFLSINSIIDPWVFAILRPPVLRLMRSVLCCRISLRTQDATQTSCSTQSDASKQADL
T1 sequence (P35408 whole entry): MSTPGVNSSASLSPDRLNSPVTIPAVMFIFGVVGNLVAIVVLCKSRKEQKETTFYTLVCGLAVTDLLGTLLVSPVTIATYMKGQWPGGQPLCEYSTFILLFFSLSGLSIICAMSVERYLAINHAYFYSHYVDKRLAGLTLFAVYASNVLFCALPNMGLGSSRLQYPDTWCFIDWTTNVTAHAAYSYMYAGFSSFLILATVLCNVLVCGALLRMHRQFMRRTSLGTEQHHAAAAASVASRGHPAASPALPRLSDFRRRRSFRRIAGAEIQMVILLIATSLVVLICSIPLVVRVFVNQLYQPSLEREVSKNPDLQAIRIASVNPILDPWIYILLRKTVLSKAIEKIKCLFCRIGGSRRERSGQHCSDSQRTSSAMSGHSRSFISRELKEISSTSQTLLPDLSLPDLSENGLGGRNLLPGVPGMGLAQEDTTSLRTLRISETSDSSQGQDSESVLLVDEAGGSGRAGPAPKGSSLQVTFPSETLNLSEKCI

On to `C[C@H](NC(=O)c1c(CCc2cccc(C(F)(F)F)c2)sc2c1CCOC2)c1ccc(C(=O)O)cc1` [YJ112, (S)-4-(1-(2-(3-(trifluoromethyl)phenethyl)-5,7-dihydro-4H-thieno[2,3-c]pyran-3-carboxamido)ethyl)benzoic Acid], for which the IC50 at 72 h in [1], in data set [5], in [7], in data set [8], in data set [9] and in data set [11] was over 100 µM each time. For the same molecule, the IC50 in [2] is under 0.1 µM; in data set [3], over 10 µM; in [4] it was over 10 µM; in [6], 0.1 to 1 µM; in data set [10] it was over 10 µM.
Take `C[C@H](NC(=O)c1c(CCc2ccc(F)cc2)sc2c1CCCC2)c1ccc(C(=O)O)cc1` [YJ108, (S)-4-(1-(2-(4-fluorophenethyl)-4,5,6,7-tetrahydrobenzo[b]thiophene-3-carboxamido)ethyl)benzoic Acid]: the IC50 at 72 h in data set [1], in data set [5], in [7], in data set [8], in data set [9] and in [11] was over 100 µM in each case. Also, the IC50 in [2] was under 0.1 µM; in [3], over 10 µM; in data set [4], over 10 µM; in [6], under 0.1 µM; in data set [10] it was over 10 µM.
With `C[C@H](NC(=O)c1c(Cc2ccc(F)c(F)c2)sc2c1CCOC2)c1ccc(C(=O)O)cc1` [YJ127, (S)-4-(1-(2-(3,4-difluorobenzyl)-4,7-dihydro-5H-thieno[2,3-c]pyran-3-carboxamido)ethyl)benzoic Acid], the IC50 in data set [2] is under 0.1 µM.
As for `COc1ccc(CCc2sc3c(c2C(=O)N[C@@H](C)c2ccc(C(=O)O)cc2)CCOC3)cc1` [YJ122, (S)-4-(1-(2-(4-methoxyphenethyl)-4,7-dihydro-5H-thieno[2,3-c]pyran-3-carboxamido)ethyl)benzoic Acid], the IC50 in data set [2] was under 0.1 µM.
For the molecule `C[C@H](NC(=O)c1c(C#Cc2ccc(F)cc2)sc2c1CC(C)(C)OC2)c1ccc(C(=O)O)cc1` [YJ105, (S)-4-(1-(2-((4-fluorophenyl)ethynyl)-5,5-dimethyl-5,7-dihydro-4H-thieno[2,3-c]pyran-3-carboxamido)ethyl)benzoic Acid], the IC50 in data set [2] was 0.1 to 1 µM.
With `C[C@H](NC(=O)c1c(C#Cc2ccc(F)cc2)sc2c1CCOC2)c1ccc(C(=O)O)cc1` [YJ101, (S)-4-(1-(2-((4-fluorophenyl)ethynyl)-5,7-dihydro-4H-thieno[2,3-c]pyran-3-carboxamido)ethyl)benzoic Acid], the IC50 at 72 h in [1], in data set [5], in data set [7], in [8], in data set [9] and in data set [11] was over 100 µM in each case. Also, the IC50 in [3] is over 10 µM; in [4], over 10 µM; in data set [6], 0.1 to 1 µM; in data set [10] it was over 10 µM.
On to `C[C@H](NC(=O)c1c(Cc2cccc(F)c2)sc2c1CCOC2)c1ccc(C(=O)O)cc1` [YJ123, (S)-4-(1-(2-(3-fluorobenzyl)-4,7-dihydro-5H-thieno[2,3-c]pyran-3-carboxamido)ethyl)benzoic Acid], for which, in data set [2], the 50% inhibitory concentration (IC50) is under 0.1 µM.
As for `C[C@H](NC(=O)c1c(CCc2ccc(C(F)(F)F)cc2)sc2c1CCOC2)c1ccc(C(=O)O)cc1` [YJ111, (S)-4-(1-(2-(4-(trifluoromethyl)phenethyl)-5,7-dihydro-4H-thieno[2,3-c]pyran-3-carboxamido)ethyl)benzoic Acid], the IC50 in [2] and in data set [6] was under 0.1 µM throughout.
`C[C@H](NC(=O)c1c(C#Cc2ccc(F)cc2)sc2c1CCC2)c1ccc(C(=O)O)cc1` [YJ102, (S)-4-(1-(2-((4-fluorophenyl)ethynyl)-5,6-dihydro-4H-cyclopenta[b]thiophene-3-carboxamido)ethyl)benzoic Acid]: the IC50 in data set [2] and in data set [6] was under 0.1 µM each time.
On to `C[C@H](NC(=O)c1c(CCc2ccc(F)cc2)sc2c1CCC2)c1ccc(C(=O)O)cc1` [YJ109, (S)-4-(1-(2-(4-fluorophenethyl)-5,6-dihydro-4H-cyclopenta[b]thiophene-3-carboxamido)ethyl)benzoic Acid], for which the 50% inhibitory concentration (IC50) at 72 h in data set [1], in data set [5], in data set [7], in data set [8], in [9] and in data set [11] was over 100 µM each time. Besides, in data set [6], the IC50 is under 0.1 µM.
Take `C[C@H](NC(=O)c1c(Cc2cccc(Cl)c2)sc2c1CCOC2)c1ccc(C(=O)O)cc1` [YJ126, (S)-4-(1-(2-(3-chlorobenzyl)-4,7-dihydro-5H-thieno[2,3-c]pyran-3-carboxamido)ethyl)benzoic Acid]: in data set [2], the 50% inhibitory concentration (IC50) is under 0.1 µM.
Take `Nc1ccn([C@@H]2O[C@H](CO)[C@@H](O)C2(F)F)c(=O)n1` [gemcitabine, reference compound]: the IC50 at 72 h in data set [1] was 0.0051 ± 0.0001 µM; in data set [5], 0.0726 ± 0.0003 µM; in data set [8], 0.016 ± 0.0001 µM; in [11], 0.0053 ± 0.0002 µM.
Take `COc1ccc(Cc2sc3c(c2C(=O)N[C@@H](C)c2ccc(C(=O)O)cc2)CCOC3)cc1` [YJ128, (S)-4-(1-(2-(4-methoxybenzyl)-4,7-dihydro-5H-thieno[2,3-c]pyran-3-carboxamido)ethyl)benzoic Acid]: the IC50 in data set [2] is under 0.1 µM.
With `O=C(NCC1CCC(C(=O)O)CC1)c1c(Cc2ccc(F)cc2)sc2c1CCOC2` (stereo not shown) [YJ130, 4-((2-(4-fluorobenzyl)-4,7-dihydro-5H-thieno[2,3-c]pyran-3-carboxamido)methyl)cyclohexane-1-carboxylic Acid], the half-inhibitory concentration (IC50) in [2] was under 0.1 µM; in data set [6] it was 0.1 to 1 µM.

As a reminder, the IC50 is the midpoint of a concentration-inhibition curve.

These data come from patent publication US20210139497A1, “THIENOCYCLIC COMPOUND AND SYNTHESIS METHOD THEREFOR AND APPLICATION THEREOF” (SHANGHAI YUYAO BIOTECH LTD., priority 2017, published 2021).
